Results taken from PubChem BioAssay AID1259407 (Chemical Carcinogenesis Research Information System (CCRIS), 2018).
Calls of active or inactive are those of the source. No rule for the calls is given here.

Test system: CCRIS mutagenicity, Ames/micronucleus/aberration tests
Assay: CCRIS mutagenicity studies
[1] = Test System: AMES SALMONELLA TYPHIMURIUM, Strain/Indicator: TA98, Metabolic Activation: NONE, Method: PREINCUBATION
[2] = Test System: AMES SALMONELLA TYPHIMURIUM, Strain/Indicator: TA100, Metabolic Activation: NONE, Method: PREINCUBATION
[3] = Test System: AMES SALMONELLA TYPHIMURIUM, Strain/Indicator: TA1535, Metabolic Activation: NONE, Method: PREINCUBATION
[4] = Test System: AMES SALMONELLA TYPHIMURIUM, Strain/Indicator: TA1537, Metabolic Activation: NONE, Method: PREINCUBATION

Measured: mutagenic call

CCC[C@]1(O)CC[C@H]2[C@@H]3CC[C@H]4CC(=O)C[C@H](C)[C@]4(C)[C@H]3CC[C@@]21C
inactive: End Point: IN VITRO CHROMOSOMAL ABERRATIONS, Test System: HUMAN PERIPHERAL LYMPHOCYTES, Metabolic Activation: NONE inactive; negative | End Point: IN VITRO CHROMOSOMAL ABERRATIONS, Test System: HUMAN PERIPHERAL LYMPHOCYTES, Metabolic Activation: RAT, LIVER, S-9, AROCLOR 1254 inactive; negative | End Point: IN VIVO MICRONUCLEUS, Test System: BONE MARROW POLYCHROMATIC ERYTHROCYTES, Species: MOUSE, Strain/Sex: NMRI/MALE, FEMALE, Route: SUBCUTANEOUS INJECTION inactive; negative | [1] inactive; negative | Test System: AMES SALMONELLA TYPHIMURIUM, Strain/Indicator: TA98, Metabolic Activation: NONE, Method: STANDARD PLATE inactive; negative | Test System: AMES SALMONELLA TYPHIMURIUM, Strain/Indicator: TA98, Metabolic Activation: RAT, LIVER, S-9, AROCLOR 1254, Method: PREINCUBATION inactive; negative | Test System: AMES SALMONELLA TYPHIMURIUM, Strain/Indicator: TA98, Metabolic Activation: RAT, LIVER, S-9, AROCLOR 1254, Method: STANDARD PLATE inactive; negative | [2] inactive; negative | Test System: AMES SALMONELLA TYPHIMURIUM, Strain/Indicator: TA100, Metabolic Activation: NONE, Method: STANDARD PLATE inactive; negative | Test System: AMES SALMONELLA TYPHIMURIUM, Strain/Indicator: TA100, Metabolic Activation: RAT, LIVER, S-9, AROCLOR 1254, Method: PREINCUBATION inactive; negative | Test System: AMES SALMONELLA TYPHIMURIUM, Strain/Indicator: TA100, Metabolic Activation: RAT, LIVER, S-9, AROCLOR 1254, Method: STANDARD PLATE inactive; negative | [3] inactive; negative | Test System: AMES SALMONELLA TYPHIMURIUM, Strain/Indicator: TA1535, Metabolic Activation: NONE, Method: STANDARD PLATE inactive; negative | Test System: AMES SALMONELLA TYPHIMURIUM, Strain/Indicator: TA1535, Metabolic Activation: RAT, LIVER, S-9, AROCLOR 1254, Method: PREINCUBATION inactive; negative | Test System: AMES SALMONELLA TYPHIMURIUM, Strain/Indicator: TA1535, Metabolic Activation: RAT, LIVER, S-9, AROCLOR 1254, Method: STANDARD PLATE inactive; negative | [4] inactive; negative | Test System: AMES SALMONELLA TYPHIMURIUM, Strain/Indicator: TA1537, Metabolic Activation: NONE, Method: STANDARD PLATE inactive; negative | Test System: AMES SALMONELLA TYPHIMURIUM, Strain/Indicator: TA1537, Metabolic Activation: RAT, LIVER, S-9, AROCLOR 1254, Method: PREINCUBATION inactive; negative | Test System: AMES SALMONELLA TYPHIMURIUM, Strain/Indicator: TA1537, Metabolic Activation: RAT, LIVER, S-9, AROCLOR 1254, Method: STANDARD PLATE inactive; negative | Test System: AMES SALMONELLA TYPHIMURIUM, Strain/Indicator: TA1538, Metabolic Activation: NONE, Method: PREINCUBATION inactive; negative | Test System: AMES SALMONELLA TYPHIMURIUM, Strain/Indicator: TA1538, Metabolic Activation: NONE, Method: STANDARD PLATE inactive; negative | Test System: AMES SALMONELLA TYPHIMURIUM, Strain/Indicator: TA1538, Metabolic Activation: RAT, LIVER, S-9, AROCLOR 1254, Method: PREINCUBATION inactive; negative | Test System: AMES SALMONELLA TYPHIMURIUM, Strain/Indicator: TA1538, Metabolic Activation: RAT, LIVER, S-9, AROCLOR 1254, Method: STANDARD PLATE inactive; negative | Test System: CHINESE HAMSTER V-79, Strain/Indicator: V-79 (HGPRT)/6-THIOGUANINE, Metabolic Activation: NONE inactive; negative | Test System: CHINESE HAMSTER V-79, Strain/Indicator: V-79 (HGPRT)/6-THIOGUANINE, Metabolic Activation: RAT, LIVER, S-9, AROCLOR 1254 inactive; negative

CC(C)[N+](C)(CCOC(=O)C1c2ccccc2Oc2ccccc21)C(C)C
inactive: End Point: IN VITRO CHROMOSOMAL ABERRATIONS, Test System: CHINESE HAMSTER OVARY CELLS, Metabolic Activation: NONE inactive; negative | End Point: IN VITRO CHROMOSOMAL ABERRATIONS, Test System: CHINESE HAMSTER OVARY CELLS, Metabolic Activation: RAT, LIVER, S-9, AROCLOR 1254 inactive; negative | Test System: AMES SALMONELLA TYPHIMURIUM, Strain/Indicator: TA97, Metabolic Activation: HAMSTER, LIVER, S-9, AROCLOR 1254 (10 OR 30%), Method: PREINCUBATION inactive; negative | Test System: AMES SALMONELLA TYPHIMURIUM, Strain/Indicator: TA97, Metabolic Activation: NONE, Method: PREINCUBATION inactive; negative | Test System: AMES SALMONELLA TYPHIMURIUM, Strain/Indicator: TA97, Metabolic Activation: RAT, LIVER, S-9, AROCLOR 1254 (10%), Method: PREINCUBATION inactive; negative | Test System: AMES SALMONELLA TYPHIMURIUM, Strain/Indicator: TA97, Metabolic Activation: RAT, LIVER, S-9, AROCLOR 1254 (30%), Method: PREINCUBATION inactive; negative | Test System: AMES SALMONELLA TYPHIMURIUM, Strain/Indicator: TA98, Metabolic Activation: HAMSTER, LIVER, S-9, AROCLOR 1254 (10%), Method: PREINCUBATION inactive; negative | Test System: AMES SALMONELLA TYPHIMURIUM, Strain/Indicator: TA98, Metabolic Activation: HAMSTER, LIVER, S-9, AROCLOR 1254 (30%), Method: PREINCUBATION inactive; negative | [1] inactive; negative | Test System: AMES SALMONELLA TYPHIMURIUM, Strain/Indicator: TA98, Metabolic Activation: RAT, LIVER, S-9, AROCLOR 1254 (10%), Method: PREINCUBATION inactive; negative | Test System: AMES SALMONELLA TYPHIMURIUM, Strain/Indicator: TA98, Metabolic Activation: RAT, LIVER, S-9, AROCLOR 1254 (30%), Method: PREINCUBATION inactive; negative | Test System: AMES SALMONELLA TYPHIMURIUM, Strain/Indicator: TA100, Metabolic Activation: HAMSTER, LIVER, S-9, AROCLOR 1254 (10%), Method: PREINCUBATION inactive; negative | Test System: AMES SALMONELLA TYPHIMURIUM, Strain/Indicator: TA100, Metabolic Activation: HAMSTER, LIVER, S-9, AROCLOR 1254 (30%), Method: PREINCUBATION inactive; negative | [2] inactive; negative | Test System: AMES SALMONELLA TYPHIMURIUM, Strain/Indicator: TA100, Metabolic Activation: RAT, LIVER, S-9, AROCLOR 1254 (10%), Method: PREINCUBATION inactive; negative | Test System: AMES SALMONELLA TYPHIMURIUM, Strain/Indicator: TA100, Metabolic Activation: RAT, LIVER, S-9, AROCLOR 1254 (30%), Method: PREINCUBATION inactive; negative | Test System: AMES SALMONELLA TYPHIMURIUM, Strain/Indicator: TA1535, Metabolic Activation: HAMSTER, LIVER, S-9, AROCLOR 1254 (10%), Method: PREINCUBATION inactive; negative | Test System: AMES SALMONELLA TYPHIMURIUM, Strain/Indicator: TA1535, Metabolic Activation: HAMSTER, LIVER, S-9, AROCLOR 1254 (30%), Method: PREINCUBATION inactive; negative | [3] inactive; negative | Test System: AMES SALMONELLA TYPHIMURIUM, Strain/Indicator: TA1535, Metabolic Activation: RAT, LIVER, S-9, AROCLOR 1254 (10%), Method: PREINCUBATION inactive; negative | Test System: AMES SALMONELLA TYPHIMURIUM, Strain/Indicator: TA1535, Metabolic Activation: RAT, LIVER, S-9, AROCLOR 1254 (30%), Method: PREINCUBATION inactive; negative | Test System: AMES SALMONELLA TYPHIMURIUM, Strain/Indicator: TA1537, Metabolic Activation: HAMSTER, LIVER, S-9, AROCLOR 1254 (10%), Method: PREINCUBATION inactive; negative | [4] inactive; negative | Test System: AMES SALMONELLA TYPHIMURIUM, Strain/Indicator: TA1537, Metabolic Activation: RAT, LIVER, S-9, AROCLOR 1254 (10%), Method: PREINCUBATION inactive; negative
